Assay results taken from EP4568957B1, “SUBSTITUTED PHENYL OXOOXAZOLYL PIPERIDINE DIONE COMPOUNDS” (Bristol-Myers Squibb Company, priority 2023, dated 2025).

What was measured:
IKZF3 Aiolos = IKZF3 Aiolos (Homo sapiens, UniProt Q96SW2+Q9UKT9); experiment: Human Regulatory T Cell Degradation Assay; type: cell-based; set-up: Foxp3-BV421, HELIOS-PE-Cy7, EOS-PE, IKAROS-PECF594, AIOLOS-AF647; endogenous in cells; host or cells: human PBMC from healthy donors (CD8+ T cells gated by flow cytometry); details: human regulatory T cells, 20 hours; for DC50: vs DMSO alone
IKZF3 Aiolos, sequence (Q9UKT9 whole entry): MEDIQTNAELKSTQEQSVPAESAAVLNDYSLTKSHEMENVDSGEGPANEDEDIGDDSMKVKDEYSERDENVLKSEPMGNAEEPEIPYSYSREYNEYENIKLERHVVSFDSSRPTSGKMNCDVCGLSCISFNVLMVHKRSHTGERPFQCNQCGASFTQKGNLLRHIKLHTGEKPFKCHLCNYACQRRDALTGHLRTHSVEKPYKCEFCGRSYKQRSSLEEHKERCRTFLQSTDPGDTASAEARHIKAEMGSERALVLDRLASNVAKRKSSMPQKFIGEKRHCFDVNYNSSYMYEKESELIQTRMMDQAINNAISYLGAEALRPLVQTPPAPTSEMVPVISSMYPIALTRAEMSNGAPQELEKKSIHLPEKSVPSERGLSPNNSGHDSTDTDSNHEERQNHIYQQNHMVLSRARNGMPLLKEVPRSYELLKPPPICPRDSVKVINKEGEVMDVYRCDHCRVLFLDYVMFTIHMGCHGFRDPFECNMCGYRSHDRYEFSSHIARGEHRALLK
IKZF3 Aiolos, sequence (Q96SW2 whole entry): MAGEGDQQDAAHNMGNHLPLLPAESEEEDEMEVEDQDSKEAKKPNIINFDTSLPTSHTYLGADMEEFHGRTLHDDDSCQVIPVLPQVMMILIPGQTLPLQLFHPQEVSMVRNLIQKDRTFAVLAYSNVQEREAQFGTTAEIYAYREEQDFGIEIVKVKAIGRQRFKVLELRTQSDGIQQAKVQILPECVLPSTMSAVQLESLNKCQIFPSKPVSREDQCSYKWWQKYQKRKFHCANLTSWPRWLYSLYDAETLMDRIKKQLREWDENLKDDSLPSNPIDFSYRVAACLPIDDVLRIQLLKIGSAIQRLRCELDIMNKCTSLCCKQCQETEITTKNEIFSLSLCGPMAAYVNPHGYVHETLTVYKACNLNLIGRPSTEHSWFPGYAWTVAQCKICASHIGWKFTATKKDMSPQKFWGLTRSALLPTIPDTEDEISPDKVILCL
IKZF3 Aiolos, sequence (Q16531 whole entry partner): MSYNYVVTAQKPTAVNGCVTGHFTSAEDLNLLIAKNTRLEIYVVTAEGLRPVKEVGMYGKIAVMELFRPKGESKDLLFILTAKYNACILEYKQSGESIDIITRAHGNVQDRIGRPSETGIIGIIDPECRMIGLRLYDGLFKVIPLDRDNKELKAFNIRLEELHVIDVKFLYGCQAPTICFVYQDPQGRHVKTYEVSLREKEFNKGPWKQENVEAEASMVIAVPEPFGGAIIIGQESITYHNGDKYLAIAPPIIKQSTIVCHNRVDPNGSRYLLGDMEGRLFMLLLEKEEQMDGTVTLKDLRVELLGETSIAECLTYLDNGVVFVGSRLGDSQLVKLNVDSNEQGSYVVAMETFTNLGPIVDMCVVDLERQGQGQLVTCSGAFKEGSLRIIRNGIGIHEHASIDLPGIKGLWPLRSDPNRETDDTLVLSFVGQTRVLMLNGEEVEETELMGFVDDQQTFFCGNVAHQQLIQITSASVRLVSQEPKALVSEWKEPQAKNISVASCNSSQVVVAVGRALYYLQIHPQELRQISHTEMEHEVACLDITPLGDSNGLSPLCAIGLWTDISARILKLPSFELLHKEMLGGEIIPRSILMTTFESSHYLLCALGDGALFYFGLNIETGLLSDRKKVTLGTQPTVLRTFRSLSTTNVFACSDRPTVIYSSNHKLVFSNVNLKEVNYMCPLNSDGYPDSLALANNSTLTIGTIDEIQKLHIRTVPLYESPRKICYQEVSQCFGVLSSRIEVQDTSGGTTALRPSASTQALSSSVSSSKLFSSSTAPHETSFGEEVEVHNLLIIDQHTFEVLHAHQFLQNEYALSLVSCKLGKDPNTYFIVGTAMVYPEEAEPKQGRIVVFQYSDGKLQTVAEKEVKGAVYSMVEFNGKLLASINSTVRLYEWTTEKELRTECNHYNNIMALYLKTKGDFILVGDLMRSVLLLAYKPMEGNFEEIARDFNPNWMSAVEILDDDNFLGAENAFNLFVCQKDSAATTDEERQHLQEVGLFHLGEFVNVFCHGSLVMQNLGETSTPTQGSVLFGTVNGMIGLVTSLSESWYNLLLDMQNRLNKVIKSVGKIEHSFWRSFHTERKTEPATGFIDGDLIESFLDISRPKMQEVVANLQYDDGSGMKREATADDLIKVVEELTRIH

IKZF4 Eos = biological target: T1, IKZF4 Eos (Homo sapiens, UniProt Q96SW2+Q9H2S9); experiment: Human Regulatory T Cell Degradation Assay; type: cell-based; details: human regulatory T cells, 20 hours; for DC50: vs DMSO alone
T1 construct: endogenous in cells; host or cells: primary human CD4+CD127lowCD25+ Treg cells from healthy leukopaks
T1 sequence (Q9H2S9 whole entry): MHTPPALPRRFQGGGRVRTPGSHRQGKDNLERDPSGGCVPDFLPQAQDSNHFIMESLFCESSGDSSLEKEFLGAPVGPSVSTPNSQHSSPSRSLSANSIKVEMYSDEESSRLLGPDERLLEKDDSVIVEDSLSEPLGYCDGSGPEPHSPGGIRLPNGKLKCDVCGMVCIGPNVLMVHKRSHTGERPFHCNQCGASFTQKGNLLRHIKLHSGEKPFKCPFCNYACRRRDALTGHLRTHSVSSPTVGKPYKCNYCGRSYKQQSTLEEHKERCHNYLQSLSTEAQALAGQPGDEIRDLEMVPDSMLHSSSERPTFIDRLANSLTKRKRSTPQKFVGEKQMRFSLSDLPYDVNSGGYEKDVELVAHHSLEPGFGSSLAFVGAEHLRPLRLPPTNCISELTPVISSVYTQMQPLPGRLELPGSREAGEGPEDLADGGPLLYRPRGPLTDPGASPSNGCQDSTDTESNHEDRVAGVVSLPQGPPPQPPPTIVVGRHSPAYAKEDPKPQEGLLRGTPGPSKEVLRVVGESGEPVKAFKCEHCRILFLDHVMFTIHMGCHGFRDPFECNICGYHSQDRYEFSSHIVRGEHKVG
T1 sequence (Q96SW2 whole entry): as the sequence (Q96SW2 whole entry) above
T1 sequence (Q16531 whole entry partner): as the sequence (Q16531 whole entry partner) above

SMILES | IKZF3 Aiolos max % deg. observed (IKZF3 Aiolos) | DC50 (IKZF3 Aiolos) | IKZF4 Eos max % deg. observed (IKZF4 Eos) | DC50 (IKZF4 Eos)
CO[C@H]1C[C@H](Oc2c(C)cc(-c3ccc(-c4cn(C5CCC(=O)NC5=O)c(=O)o4)c(F)c3)nc2N)C1 (relative stereo) [Example 2, trans 3-(5-(4-(6-amino-5-(3-methoxycyclobutoxy)-4-methylpyridin-2-yl)-2-fluorophenyl)-2-oxooxazol-3(2H)-yl)piperidine-2,6-dione] | 25% | > 100 µM | 62% | 0.193 µM
CC1(C)Cc2cc(-c3ccc(-c4cn(C5CCC(=O)NC5=O)c(=O)o4)c(F)c3)nc(N)c2O1 (centres unmarked) [Example 1, 3-(5-(4-(7-amino-2,2-dimethyl-2,3-dihydrofuro[2,3-c]pyridin-5-yl)-2-fluorophenyl)-2-oxooxazol-3(2H)-yl)piperidine-2,6-dione] | 22% | > 10 µM | 56% | 0.055 µM
Cc1cc(-c2ccc(-c3cn(C4CCC(=O)NC4=O)c(=O)o3)c(F)c2)nc(N)c1NCC1CCOCC1 (centres unmarked) [Example 3, 3-(5-(4-(6-amino-4-methyl-5-(((tetrahydro-2H-pyran-4-yl)methyl)amino)pyridin-2-yl)-2-fluorophenyl)-2-oxooxazol-3(2H)-yl)piperidine-2,6-dione] | 25% | > 10 µM | 59% | 0.141 µM
COC1CCN(Cc2ccc(-c3ccc(-c4cn(C5CCC(=O)NC5=O)c(=O)o4)c(F)c3)nc2N)CC1 (centres unmarked) [Example 4, 3-(5-(4-(6-amino-5-((4-methoxypiperidin-1-yl)methyl)pyridin-2-yl)-2-fluorophenyl)-2-oxooxazol-3(2H)-yl)piperidine-2,6-dione] | 35% | > 10 µM | 62% | 0.203 µM
Cc1cc(-c2ccc(-c3cn(C4CCC(=O)NC4=O)c(=O)o3)c(F)c2)nc(N)c1COC1CCOCC1 (centres unmarked) [Example 5, 3-(5-(4-(6-Amino-4-methyl-5-(((tetrahydro-2H-pyran-4-yl)oxy)methyl)pyridin-2-yl)-2-fluorophenyl)-2-oxooxazol-3(2H)-yl)piperidine-2,6-dione] | 29% | > 10 µM | 67% | 0.575 µM
